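Briefly, cells in 96-well plates were exposed to five compound concentrations for 48 h, and endpoints were estimated by linear interpolation. GI50: concentration for 50% inhibition of growth. At the TGI there is no net growth.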
Legend:
Assay in all cases: NCI tumour cell line growth inhibition, 48 h
SK-MEL-5 melanoma = test system: SK-MEL-5 melanoma
SNB-19 CNS = test system: SNB-19 CNS
OVCAR-4 ovarian = test system: OVCAR-4 ovarian
SK-MEL-2 melanoma = test system: SK-MEL-2 melanoma
COLO 205 colon = test system: COLO 205 colon
T-47D breast = test system: T-47D breast
NCI-H226 lung = test system: NCI-H226 lung
NCI-H460 lung = test system: NCI-H460 lung
HCT-15 colon = test system: HCT-15 colon
HL-60(TB) leukemia = test system: HL-60(TB) leukemia
K-562 leukemia = test system: K-562 leukemia
IGROV1 ovarian = test system: IGROV1 ovarian
SNB-75 CNS = test system: SNB-75 CNS
786-0 renal = test system: 786-0 renal
OVCAR-8 ovarian = test system: OVCAR-8 ovarian
HCT-116 colon = test system: HCT-116 colon
HT29 colon = test system: HT29 colon
LOX IMVI melanoma = test system: LOX IMVI melanoma
UACC-62 melanoma = test system: UACC-62 melanoma
UACC-257 melanoma = test system: UACC-257 melanoma
NCI-H23 lung = test system: NCI-H23 lung
MCF7 breast = test system: MCF7 breast
PC-3 prostate = test system: PC-3 prostate
UO-31 renal = test system: UO-31 renal
MDA-MB-231 breast = test system: MDA-MB-231 breast
SR leukemia = test system: SR leukemia
NCI/ADR-RES ovarian = test system: NCI/ADR-RES ovarian
NCI-H522 lung = test system: NCI-H522 lung
BT-549 breast = test system: BT-549 breast
RPMI-8226 leukemia = test system: RPMI-8226 leukemia
TK-10 renal = test system: TK-10 renal
A498 renal = test system: A498 renal
HOP-92 NSCLC = test system: HOP-92 NSCLC
HOP-62 NSCLC = test system: HOP-62 NSCLC
CCRF-CEM leukemia = test system: CCRF-CEM leukemia
SK-OV-3 ovarian = test system: SK-OV-3 ovarian
ACHN renal = test system: ACHN renal
OVCAR-3 ovarian = test system: OVCAR-3 ovarian
SF-539 CNS = test system: SF-539 CNS
SN12C renal = test system: SN12C renal
A549 NSCLC = test system: A549 NSCLC
U251 CNS = test system: U251 CNS
SW-620 colon = test system: SW-620 colon
KM12 colon = test system: KM12 colon
EKVX NSCLC = test system: EKVX NSCLC
SK-MEL-28 melanoma = test system: SK-MEL-28 melanoma
OVCAR-5 ovarian = test system: OVCAR-5 ovarian
HCC-2998 colon = test system: HCC-2998 colon
M14 melanoma = test system: M14 melanoma
MDA-MB-435 = test system: MDA-MB-435
DU-145 prostate = test system: DU-145 prostate
SF-268 CNS = test system: SF-268 CNS
MOLT-4 leukemia = test system: MOLT-4 leukemia
MALME-3M melanoma = test system: MALME-3M melanoma
SF-295 CNS = test system: SF-295 CNS
HS 578T breast = test system: HS 578T breast
RXF 393 renal = test system: RXF 393 renal
CAKI-1 renal = test system: CAKI-1 renal

CC(C)(C)OC(=O)N1CCN(CCn2cc(C(F)(F)F)c3c(Cl)ncnc32)CC1
GI50 (SK-MEL-5 melanoma): 4.19 µM | TGI (SK-MEL-5 melanoma): 14.5 µM | GI50 (SNB-19 CNS): 2 µM | TGI (SNB-19 CNS): 3.72 µM | GI50 (OVCAR-4 ovarian): 13.2 µM | TGI (OVCAR-4 ovarian): 26.7 µM | GI50 (SK-MEL-2 melanoma): 1.93 µM | TGI (SK-MEL-2 melanoma): 3.9 µM | GI50 (COLO 205 colon): 18.4 µM | TGI (COLO 205 colon): 37.9 µM | GI50 (T-47D breast): 11.5 µM | TGI (T-47D breast): 34.5 µM | GI50 (NCI-H226 lung): 20 µM | TGI (NCI-H226 lung): 43.3 µM | GI50 (NCI-H460 lung): 2.18 µM | TGI (NCI-H460 lung): 4.29 µM | GI50 (HCT-15 colon): 1.94 µM | TGI (HCT-15 colon): 3.94 µM | GI50 (HL-60(TB) leukemia): 2.43 µM | TGI (HL-60(TB) leukemia): 6.46 µM | GI50 (K-562 leukemia): 3.22 µM | TGI (K-562 leukemia): 14.1 µM | GI50 (IGROV1 ovarian): 1.84 µM | TGI (IGROV1 ovarian): 3.74 µM | GI50 (SNB-75 CNS): 16.2 µM | TGI (SNB-75 CNS): 32.9 µM | GI50 (786-0 renal): 14 µM | TGI (786-0 renal): 27.2 µM | GI50 (OVCAR-8 ovarian): 2.06 µM | TGI (OVCAR-8 ovarian): 3.76 µM | GI50 (HCT-116 colon): 1.68 µM | TGI (HCT-116 colon): 3.15 µM | GI50 (HT29 colon): 3.27 µM | TGI (HT29 colon): 11.1 µM | GI50 (LOX IMVI melanoma): 1.73 µM | TGI (LOX IMVI melanoma): 3.24 µM | GI50 (UACC-62 melanoma): 2.25 µM | TGI (UACC-62 melanoma): 5.69 µM | GI50 (UACC-257 melanoma): 3.31 µM | TGI (UACC-257 melanoma): 10.4 µM | GI50 (NCI-H23 lung): 2 µM | TGI (NCI-H23 lung): 4.32 µM | GI50 (MCF7 breast): 12.3 µM | TGI (MCF7 breast): 32.1 µM | GI50 (PC-3 prostate): 1.79 µM | TGI (PC-3 prostate): 3.43 µM | GI50 (UO-31 renal): 11.6 µM | TGI (UO-31 renal): 24.4 µM | GI50 (MDA-MB-231 breast): 11.1 µM | TGI (MDA-MB-231 breast): 27.5 µM | GI50 (SR leukemia): 2.94 µM | TGI (SR leukemia): > 100 µM | GI50 (NCI/ADR-RES ovarian): 23 µM | TGI (NCI/ADR-RES ovarian): 67.7 µM | GI50 (NCI-H522 lung): 15.1 µM | TGI (NCI-H522 lung): 29.9 µM | GI50 (BT-549 breast): 1.55 µM | TGI (BT-549 breast): 2.92 µM | GI50 (RPMI-8226 leukemia): 3.77 µM | TGI (RPMI-8226 leukemia): 12.3 µM | GI50 (TK-10 renal): 19.7 µM | TGI (TK-10 renal): 42.8 µM | GI50 (A498 renal): 18.2 µM | TGI (A498 renal): 32.7 µM | GI50 (HOP-92 NSCLC): 3.12 µM | TGI (HOP-92 NSCLC): 10.9 µM | GI50 (HOP-62 NSCLC): 2.19 µM | TGI (HOP-62 NSCLC): 4.91 µM | GI50 (CCRF-CEM leukemia): 2.85 µM | TGI (CCRF-CEM leukemia): 9.19 µM | GI50 (SK-OV-3 ovarian): 16.7 µM | TGI (SK-OV-3 ovarian): 30.7 µM | GI50 (ACHN renal): 16.9 µM | TGI (ACHN renal): 39.3 µM | GI50 (OVCAR-3 ovarian): 1.88 µM | TGI (OVCAR-3 ovarian): 3.66 µM | GI50 (SF-539 CNS): 12.8 µM | TGI (SF-539 CNS): 26.1 µM | GI50 (SN12C renal): 4.05 µM | TGI (SN12C renal): 15.1 µM | GI50 (A549 NSCLC): 19.3 µM | TGI (A549 NSCLC): 35.6 µM | GI50 (U251 CNS): 2.01 µM | TGI (U251 CNS): 3.57 µM | GI50 (SW-620 colon): 2.2 µM | TGI (SW-620 colon): 4.64 µM | GI50 (KM12 colon): 16.9 µM | TGI (KM12 colon): 35.3 µM | GI50 (EKVX NSCLC): 11.3 µM | TGI (EKVX NSCLC): 25.7 µM | GI50 (SK-MEL-28 melanoma): 1.74 µM | TGI (SK-MEL-28 melanoma): 3.25 µM | GI50 (OVCAR-5 ovarian): 17.1 µM | TGI (OVCAR-5 ovarian): 38.7 µM | GI50 (HCC-2998 colon): 2.05 µM | TGI (HCC-2998 colon): 4.53 µM | GI50 (M14 melanoma): 1.77 µM | TGI (M14 melanoma): 3.49 µM | GI50 (MDA-MB-435): 1.84 µM | TGI (MDA-MB-435): 3.65 µM | GI50 (DU-145 prostate): 2.96 µM | TGI (DU-145 prostate): 9.2 µM | GI50 (SF-268 CNS): 1.82 µM | TGI (SF-268 CNS): 3.61 µM | GI50 (MOLT-4 leukemia): 2.62 µM | TGI (MOLT-4 leukemia): 6.6 µM | GI50 (MALME-3M melanoma): 13.3 µM | TGI (MALME-3M melanoma): 27.7 µM | GI50 (SF-295 CNS): 14.5 µM | TGI (SF-295 CNS): 28.1 µM | GI50 (HS 578T breast): 2.84 µM | TGI (HS 578T breast): 8.29 µM | GI50 (RXF 393 renal): 3.43 µM | TGI (RXF 393 renal): 14.4 µM

CCOC(=O)C1=C(C)OC2(O)C=CC(O)=C3C(=O)N(c4ccccc4)C(=O)C312 (stereo not drawn)
TGI (SNB-19 CNS): 65.3 µM | TGI (OVCAR-4 ovarian): > 100 µM | TGI (SK-MEL-2 melanoma): 68.4 µM | TGI (COLO 205 colon): > 100 µM | TGI (T-47D breast): > 100 µM | TGI (NCI-H226 lung): 80.3 µM | TGI (NCI-H460 lung): > 100 µM | TGI (HCT-15 colon): > 100 µM | TGI (HL-60(TB) leukemia): > 100 µM | TGI (K-562 leukemia): > 100 µM | TGI (IGROV1 ovarian): 68.2 µM | TGI (SNB-75 CNS): 87.8 µM | TGI (786-0 renal): > 100 µM | TGI (OVCAR-8 ovarian): > 100 µM | TGI (HCT-116 colon): > 100 µM | TGI (HT29 colon): 76.7 µM | TGI (LOX IMVI melanoma): 52.9 µM | TGI (UACC-62 melanoma): 76.7 µM | TGI (UACC-257 melanoma): 99.4 µM | TGI (NCI-H23 lung): > 100 µM | TGI (MCF7 breast): 79.4 µM | TGI (PC-3 prostate): > 100 µM | TGI (UO-31 renal): 65.4 µM | TGI (MDA-MB-231 breast): > 100 µM | TGI (SR leukemia): 53.2 µM | TGI (NCI/ADR-RES ovarian): > 100 µM | TGI (NCI-H522 lung): 35.6 µM | TGI (BT-549 breast): 70.5 µM | TGI (RPMI-8226 leukemia): 86.1 µM | TGI (TK-10 renal): > 100 µM | TGI (HOP-92 NSCLC): > 100 µM | TGI (HOP-62 NSCLC): > 100 µM | TGI (SK-OV-3 ovarian): > 100 µM | TGI (ACHN renal): > 100 µM | TGI (OVCAR-3 ovarian): > 100 µM | TGI (SF-539 CNS): 68.2 µM | TGI (SN12C renal): > 100 µM | TGI (A549 NSCLC): > 100 µM | TGI (U251 CNS): > 100 µM | TGI (KM12 colon): > 100 µM | TGI (EKVX NSCLC): > 100 µM | TGI (SK-MEL-28 melanoma): 49.7 µM | TGI (OVCAR-5 ovarian): > 100 µM | TGI (HCC-2998 colon): 73.9 µM | TGI (M14 melanoma): > 100 µM | TGI (MDA-MB-435): > 100 µM | TGI (DU-145 prostate): > 100 µM | TGI (SF-268 CNS): > 100 µM | TGI (MOLT-4 leukemia): > 100 µM | TGI (MALME-3M melanoma): 41.7 µM | TGI (SF-295 CNS): > 100 µM | TGI (CAKI-1 renal): > 100 µM | TGI (HS 578T breast): 61.7 µM | TGI (RXF 393 renal): 47.7 µM

— PubChem BioAssay (NCI)
